Assays:
Experiment in all cases: TMT LC-MSMS of 11-labelled proteins
Format in all cases: cell-based
[1] = target: T1, heat shock protein 75 kDa, mitochondrial (TRAP1) (Homo sapiens, UniProt Q12931)
T1 sequence (Q12931 60-704): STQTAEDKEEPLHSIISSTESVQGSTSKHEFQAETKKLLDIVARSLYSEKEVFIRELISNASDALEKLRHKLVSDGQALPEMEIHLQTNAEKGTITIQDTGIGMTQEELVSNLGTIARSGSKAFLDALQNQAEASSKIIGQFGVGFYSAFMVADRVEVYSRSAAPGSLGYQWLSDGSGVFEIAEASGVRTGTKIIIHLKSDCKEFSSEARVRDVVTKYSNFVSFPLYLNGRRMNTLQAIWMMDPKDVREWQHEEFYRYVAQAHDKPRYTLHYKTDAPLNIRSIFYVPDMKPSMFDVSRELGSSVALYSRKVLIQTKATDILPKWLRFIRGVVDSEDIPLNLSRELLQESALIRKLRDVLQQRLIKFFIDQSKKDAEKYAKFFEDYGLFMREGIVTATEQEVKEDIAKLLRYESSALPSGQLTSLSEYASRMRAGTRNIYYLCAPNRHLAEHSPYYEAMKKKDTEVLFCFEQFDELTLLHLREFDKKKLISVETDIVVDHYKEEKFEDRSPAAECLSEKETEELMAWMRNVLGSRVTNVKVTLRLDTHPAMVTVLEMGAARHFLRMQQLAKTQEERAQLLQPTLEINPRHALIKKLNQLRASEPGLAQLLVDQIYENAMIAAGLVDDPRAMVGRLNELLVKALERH

[2] = target: 2,4-dienoyl-CoA reductase, mitochondrial (DECR1) (Homo sapiens, UniProt Q16698)
[3] = target: L-lactate dehydrogenase B chain (LDHB) (Homo sapiens, UniProt P07195)
[4] = target: Sodium/potassium-transporting ATPase subunit alpha-1 (ATP1A1) (Homo sapiens, UniProt P05023)
[5] = sheet Merged, SKBR3 cells, 11 0.5 µM 3 h vs DMSO
[6] = sheet Merged, SKBR3 cells, 11 0.5 µM 3 h vs with PU-H71 10 µM
[7] = sheet Exp1, SKBR3 cells, 11 0.5 µM 3 h vs DMSO
[8] = sheet Exp1, SKBR3 cells, 11 0.5 µM 3 h vs with PU-H71 10 µM

L-lactate dehydrogenase B chain (LDHB), sequence (P07195 whole entry): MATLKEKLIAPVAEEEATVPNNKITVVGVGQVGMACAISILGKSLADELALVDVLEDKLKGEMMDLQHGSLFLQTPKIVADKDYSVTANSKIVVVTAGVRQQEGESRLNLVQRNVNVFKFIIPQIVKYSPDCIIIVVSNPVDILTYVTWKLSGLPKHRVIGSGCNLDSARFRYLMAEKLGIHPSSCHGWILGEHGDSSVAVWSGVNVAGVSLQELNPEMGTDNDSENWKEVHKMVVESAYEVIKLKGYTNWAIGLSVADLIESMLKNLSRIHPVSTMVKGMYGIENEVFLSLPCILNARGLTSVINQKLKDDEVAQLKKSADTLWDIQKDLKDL
2,4-dienoyl-CoA reductase, mitochondrial (DECR1), sequence (Q16698 35-335): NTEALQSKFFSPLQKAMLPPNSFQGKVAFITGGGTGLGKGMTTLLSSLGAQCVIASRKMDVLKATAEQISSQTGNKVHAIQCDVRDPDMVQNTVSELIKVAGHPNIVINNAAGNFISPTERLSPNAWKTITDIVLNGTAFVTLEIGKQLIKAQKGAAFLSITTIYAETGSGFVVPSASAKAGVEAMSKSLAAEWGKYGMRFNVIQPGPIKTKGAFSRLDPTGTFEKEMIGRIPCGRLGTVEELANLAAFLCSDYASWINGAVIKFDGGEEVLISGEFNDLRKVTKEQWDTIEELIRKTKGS

CC(=O)Oc1ccc2c(c1)Oc1cc(OC(C)=O)ccc1C21OC(=O)c2cc(C(=O)NCCOCCOCCNC(=O)CCCC(=O)N(CC#N)S(=O)(=O)c3ccc(C(=O)NCCCn4c(Sc5cc6c(cc5I)OCO6)nc5c(N)ncnc54)cc3)ccc21 [compound 11]
Abundance Ratio: (11) / (11 with PU-H71) ([1]; Exp3, TRAP1): 0.787 | Abundance Ratio: (11) / (DMSO) ([1]; Exp3, TRAP1): 2.947 | Abundances (Grouped): 11 ([1]; Exp3, TRAP1): 28 | Abundances (Grouped): 11 with PU-H71 ([1]; Exp3, TRAP1, with PU-H71): 35.6 | Abundance Ratio: (11) / (DMSO) [1, 5]: 2.947 | Abundance Ratio: (11) / (11 with PU-H71) [1, 6]: 0.787 | Abundance Ratio: (11) / (DMSO) [2, 7]: 2.538 | Abundance Ratio: (11) / (11 with PU-H71) [2, 8]: 0.793 | Abundance Ratio: (11) / (11 with PU-H71) ([2]; sheet Exp2, DECR1): 0.758 | Abundance Ratio: (11) / (DMSO) ([2]; sheet Exp2, DECR1): 1.823 | Abundances (Grouped): 11 ([2]; sheet Exp2, DECR1): 59.8 | Abundances (Grouped): 11 with PU-H71 ([2]; sheet Exp2, DECR1, with PU-H71): 78.9 | Abundance Ratio: (11) / (DMSO) [2, 5]: 2.151 | Abundance Ratio: (11) / (11 with PU-H71) [2, 6]: 0.775 | Abundance Ratio: (11) / (DMSO) [3, 7]: 3.283 | Abundance Ratio: (11) / (11 with PU-H71) [3, 8]: 0.769 | Abundance Ratio: (11) / (11 with PU-H71) ([3]; sheet Exp2, LDHB): 0.731 | Abundance Ratio: (11) / (DMSO) ([3]; sheet Exp2, LDHB): 3.172 | Abundances (Grouped): 11 ([3]; sheet Exp2, LDHB): 66.3 | Abundances (Grouped): 11 with PU-H71 ([3]; sheet Exp2, LDHB, with PU-H71): 90.7 | Abundance Ratio: (11) / (DMSO) [3, 5]: 3.227 | Abundance Ratio: (11) / (11 with PU-H71) [3, 6]: 0.75 | Abundance Ratio: (11) / (11 with PU-H71) ([4]; Exp3, ATP1A1): 0.969 | Abundance Ratio: (11) / (DMSO) ([4]; Exp3, ATP1A1): 3.731 | Abundances (Grouped): 11 ([4]; Exp3, ATP1A1): 59.7 | Abundances (Grouped): 11 with PU-H71 ([4]; Exp3, ATP1A1): 61.6 | Abundance Ratio: (11) / (DMSO) [4, 7]: 1.112 | Abundance Ratio: (11) / (11 with PU-H71) [4, 8]: 0.455 | Abundance Ratio: (11) / (11 with PU-H71) ([4]; sheet Exp2, ATP1A1): 0.735 | Abundance Ratio: (11) / (DMSO) ([4]; sheet Exp2, ATP1A1): 2.007 | Abundances (Grouped): 11 ([4]; sheet Exp2, ATP1A1): 162 | Abundances (Grouped): 11 with PU-H71 ([4]; sheet Exp2, ATP1A1): 220.4 | Abundance Ratio: (11) / (DMSO) [4, 5]: 1.112 | Abundance Ratio: (11) / (11 with PU-H71) [4, 6]: 0.455
